Assay results: PMC9061999, “Application of the Adverse Outcome Pathway Concept to In Vitro Nephrotoxicity Assessment: Kidney Injury due to Receptor-Mediated Endocytosis and Lysosomal Overload as a Case Study” (Frontiers in Toxicology, 2022)
Read-outs that look alike come from different tables or passages of the source.

System: RPTEC/TERT1 cells
Format: cell-based, human
Method: For high content imaging, NRK-52E and RPTEC/TERT1 cells were cultivated in µ-clear half well area microtiter plates (Greiner) according to the protocol described for the cytotoxicity assay with slight modification. Briefly, NRK-52E cells were seeded at 5,000 cells in 100 µL growth medium per well and were incubated under standard growth conditions for 48 h prior to treatment. RPTEC/TERT1 cells were seeded at 15,000 cells in 100 µL growth medium per well and incubated under standard growth conditions for 7–8 days, until cells reached confluence and started to differentiate. This was indicated by the formation of three-dimensional structures referred to as domes which were identified by regular microscopic inspection of the plates. Only differentiated cell cultures with detectable domes were assayed. Cells of both cell lines were treated with serially diluted Polymyxin B sulfate (concentration range 7.8 to 2,000 µM) for 1, 2, 4, 6, or up to 24 h. The assay was carried out on three biological replicates defined as three different non-consecutive passages of the cell culture. Each biological replicate at each treatment concentration was assayed in triplicate wells per plate.
Following treatment, cells were stained with two different combinations of fluorescent dyes: NRK-52E cells with 50 pg/μL LysoView™ 633 (Biotium) and 1 µM SYTO 16 (Thermo Scientific), respectively, for lysosomes and nuclei; RPTEC/TERT1 cells with 10 nM LysoTracker™ Red (Thermo Scientific) and 10 ng/μL Hoechst 33342 (Merck-Sigma Aldrich), respectively, for lysosomes and nuclei. For each cell line a staining solution was obtained by mixing the lysosomes and nuclei dyes in cell culture medium at the concentrations indicated above. The cells were stained by replenishing the medium for 100 µL of staining solution per well followed by incubation at 37°C and 5% CO2 for 30 min before imaging.
Images were acquired with a fully automated fluorescence confocal Opera™ QEHS system (PerkinElmer, United Kingdom) using a ×40 air UPlanApo objective (Olympus) with 0.85 numerical aperture. NRK-52E cells stained with the dyes SYTO 16 and LysoView™633 were imaged with the laser lines 488 and 635 nm, using a 488/561/635 nm primary dichroic mirror, a 510 nm long pass (LP) detection dichroic mirror, a 540/75 nm band pass (BP) emission filter for SYTO 16 and a 690/50 nm BP emission filter for LysoView™ 633. RPTEC/TERT1 cells stained with the dyes Hoechst 33342 and LysoTracker™Red were imaged with the laser lines 405 and 561 nm, using a 405/561/635 nm primary dichroic mirror, a 580 nm LP detection dichroic mirror, a 450/50 nm BP emission filter for Hoechst 33342 and a 600/40 nm BP emission filter for LysoTracker™Red. To prevent cross talk of the fluorescent signals, each dye was imaged consecutively using the combination of lasers and filters described above. The settings for laser power, exposure time and focal height were kept constant for each cell line across all the experiments. For NRK-52E cells images were acquired at 25 randomly distributed positions in a well at a single focal plane whereas for RPTEC/TERT1 cells due to the development of dome structures images were acquired at 9 random positions at three focal planes each 1 μm apart.
The images were analyzed by custom-made image analysis scripts either with the imaging analysis software Acapella (version 2.8 PerkinElmer) or Columbus (version 2.4.0 PerkinElmer). The scripts included modules for the identification and counting of the cell nuclei to extrapolate the number of cells per well, for definition of a cytoplasm surrounding the nucleus, for identification and counting of the lysosome vesicles within the cytoplasm. Additional cellular parameters included the nuclei size, intensity, the cell size (cell area), the lysosome size (lysosome area), intensity and the number of lysosomes normalized by the cell area to compensate for difference in size of the cells.

[1] = RPTEC/TERT1, 250 µM, high content imaging

Row | Substance | Treatment time at which nuclear changes were first recorded (RPTEC/TERT1, 125 µM, high content imaging (nuclei area, nuclei intensity)) [h] | Treatment time at which lysosomal effects were measurable (RPTEC/TERT1, 125 µM, high content imaging, three biological replicates in triplicate wells) [h] | Treatment time at which lysosomal effects were measurable [1] [h] | Treatment time at which nuclear changes were first recorded [1] [h] | Cytotoxicity in high content screening (RPTEC/TERT1, 24 h treatment, Figure S1) | Effect on lysosomal endpoints in high content screening (RPTEC/TERT1, 24 h, 7.8 to 2000 µM (smaller range for CdCl2 and 4-aminophenol), triplicate experiments, Figure S1)
1 | Polymyxin B | 4 | 1 | 1 | 2 | severe cytotoxicity | 
2 | Colistin |  |  |  |  |  | most prominent effects on lysosomal endpoints
